Laboratory results as given in ChEMBL document CHEMBL5055665, “Discovery of the Triazolo[1,5-a]Pyrimidine-Based Derivative WS-898 as a Highly Efficacious and Orally Bioavailable ABCB1 Inhibitor Capable of Overcoming Multidrug Resistance” (J Med Chem, 2021).
Calls of active or inactive are those of the source. No cut-off for these calls is given here.

Assays:
[1] = system: HEK293; assay: Reversal of resistance to paclitaxel-induced cytotoxicity in human HEK293/ABCB1 cells assessed as reduction in paclitaxel IC50 at 1 uM preincubated for 4 hrs followed by paclitaxel addition and measured after 72 hrs by MTT assay (reference value: 91.40 +/- 23.32 nM); type: functional, cell-based
[2] = Clearance in Sprague-Dawley rat at 10 mg/kg, iv measured up to 24 hrs by LC-MS/MS analysis; type: ADME, organism-based; conditions: in vivo
[3] = molecular target: ATP-dependent translocase ABCB1 (Homo sapiens, UniProt P08183); assay: Binding affinity to ABCB1 in human SW-620/AD300 cells assessed as thermal stabilization of protein at 2 uM incubated for 76 hrs by CETSA-based Western blot analysis; type: cell-based; conditions: sw-620, 76 h
Sequence of ATP-dependent translocase ABCB1 (P08183 whole entry): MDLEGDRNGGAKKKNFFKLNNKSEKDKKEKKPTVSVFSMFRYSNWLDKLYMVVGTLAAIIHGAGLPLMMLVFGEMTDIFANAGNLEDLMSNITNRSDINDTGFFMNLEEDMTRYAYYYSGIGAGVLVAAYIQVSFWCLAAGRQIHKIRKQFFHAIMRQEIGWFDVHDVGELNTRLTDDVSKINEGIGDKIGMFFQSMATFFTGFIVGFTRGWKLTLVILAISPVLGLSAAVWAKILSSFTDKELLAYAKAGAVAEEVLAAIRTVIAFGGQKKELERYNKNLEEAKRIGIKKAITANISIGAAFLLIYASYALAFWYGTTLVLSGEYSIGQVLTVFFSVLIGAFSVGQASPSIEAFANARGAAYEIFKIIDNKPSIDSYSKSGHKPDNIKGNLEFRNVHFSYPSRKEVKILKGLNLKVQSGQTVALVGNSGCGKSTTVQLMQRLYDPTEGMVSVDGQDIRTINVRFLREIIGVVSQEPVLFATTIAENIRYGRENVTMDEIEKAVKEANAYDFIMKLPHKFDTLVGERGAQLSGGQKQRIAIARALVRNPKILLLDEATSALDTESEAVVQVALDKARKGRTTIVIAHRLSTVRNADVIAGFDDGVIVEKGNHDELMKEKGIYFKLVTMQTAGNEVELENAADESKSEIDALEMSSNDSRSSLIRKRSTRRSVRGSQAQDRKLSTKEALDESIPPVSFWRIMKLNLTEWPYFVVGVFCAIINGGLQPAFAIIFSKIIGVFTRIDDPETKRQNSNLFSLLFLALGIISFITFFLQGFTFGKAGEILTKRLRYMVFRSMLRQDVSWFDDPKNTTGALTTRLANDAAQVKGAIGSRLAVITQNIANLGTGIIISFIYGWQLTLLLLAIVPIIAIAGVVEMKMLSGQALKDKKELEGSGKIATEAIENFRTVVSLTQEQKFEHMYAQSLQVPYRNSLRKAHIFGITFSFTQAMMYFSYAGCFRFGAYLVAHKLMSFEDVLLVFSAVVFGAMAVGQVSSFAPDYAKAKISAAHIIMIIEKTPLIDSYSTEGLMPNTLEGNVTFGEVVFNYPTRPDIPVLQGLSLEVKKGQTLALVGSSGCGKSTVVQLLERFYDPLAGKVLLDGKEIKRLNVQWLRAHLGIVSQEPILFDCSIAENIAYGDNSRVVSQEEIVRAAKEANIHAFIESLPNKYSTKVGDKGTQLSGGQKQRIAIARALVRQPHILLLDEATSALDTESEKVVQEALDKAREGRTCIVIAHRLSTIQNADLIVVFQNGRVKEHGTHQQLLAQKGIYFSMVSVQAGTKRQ

[4] = system: HEK293; assay: Reversal of resistance to paclitaxel-induced cytotoxicity in human HEK293/pcDNA3.1 cells assessed as reduction in paclitaxel IC50 at 2 uM preincubated for 4 hrs followed by paclitaxel addition and measured after 72 hrs by MTT assay (reference value: 1.93 +/- 0.06 nM); type: functional, cell-based
[5] = system: SW-620; assay: Antitumor activity against human SW-620/AD300 cells xenografted in BALB/c nude mouse assessed as increase in cells with vacuoles at 30 mg/kg/day, ig administered for 21 days in presence of paclitaxel by TUNEL staining based fluorescence microscopy; type: functional, organism-based; conditions: time 21.0 day
[6] = system: HEK293; assay: Reversal of resistance to paclitaxel-induced cytotoxicity in human HEK293/ABCB1 cells assessed as reduction in paclitaxel IC50 at 2 uM preincubated for 4 hrs followed by paclitaxel addition and measured after 72 hrs by MTT assay (reference value: 91.40 +/- 23.32 nM); type: functional, cell-based
[7] = AUClast in Sprague-Dawley rat at 10 mg/kg, iv measured up to 24 hrs by LC-MS/MS analysis; type: ADME, organism-based; set-up: dose 10 mg/kg, time < 24 hrs, route iv; conditions: in vivo
[8] = system: Mus musculus; assay: Toxicity in BALB/c mouse xenografted with human SW-620/AD300 cells assessed as mortality at 30 mg/kg/day, ig administered 21 days in presence of paclitaxel; type: organism-based; conditions: in vivo, po, 504 h, time 21 day
[9] = system: KB 3-1; assay: Reversal of resistance to paclitaxel-induced cytotoxicity in human KB 3-1 cells assessed as reduction in paclitaxel IC50 at 2 uM preincubated for 4 hrs followed by paclitaxel addition and measured after 72 hrs by MTT assay (reference value: 4.54 +/- 1.59 nM); type: functional, cell-based
[10] = system: SW-620; assay: Antitumor activity against human SW-620/AD300 cells xenografted in BALB/c nude mouse assessed as increase in cells with nuclear pyknosis at 30 mg/kg/day, ig administered for 21 days in presence of paclitaxel by TUNEL staining based fluorescence microscopy; type: functional, organism-based; conditions: time 21.0 day
[11] = system: SW-620; assay: Antitumor activity against human SW-620/AD300 cells xenografted in BALB/c nude mouse assessed as tumor growth inhibition at 30 mg/kg/day, ig administered for 21 days in presence of paclitaxel; type: functional; set-up: scale not given: the % may be the effect or the level left; conditions: time 21 day
[12] = system: SW-620; assay: Reversal of resistance to paclitaxel-induced cytotoxicity in human SW-620/AD300 cells assessed as reduction in paclitaxel IC50 at 1 uM preincubated for 4 hrs followed by paclitaxel addition and measured after 72 hrs by MTT assay (reference value: 4.23 +/- 0.50 uM); type: functional, cell-based
[13] = Volume of distribution at steady state in Sprague-Dawley rat at 10 mg/kg, iv measured up to 24 hrs by LC-MS/MS analysis; type: ADME, organism-based; conditions: in vivo, read-out: Vdss
[14] = system: SW-620; assay: Reversal of resistance to paclitaxel-induced cytotoxicity in human SW-620 cells assessed as reduction in paclitaxel IC50 at 2 uM preincubated for 4 hrs followed by paclitaxel addition and measured after 72 hrs by MTT assay (reference value: 7.69 +/- 2.78 nM); type: functional, cell-based
[15] = system: SW-620; assay: Reversal of resistance to paclitaxel-induced cytotoxicity in human SW-620 cells assessed as reversal fold at 2 uM preincubated for 4 hrs followed by paclitaxel addition and measured after 72 hrs by MTT assay relative to paclitaxel; type: functional; conditions: time 76 hrs
[16] = system: HEK293; assay: Reversal of resistance to paclitaxel-induced cytotoxicity in human HEK293/ABCB1 cells assessed as reversal fold at 2 uM preincubated for 4 hrs followed by paclitaxel addition and measured after 72 hrs by MTT assay relative to paclitaxel; type: functional; conditions: time 76 hrs

Compound: Cc1cc(Nc2ccc(C(=O)/C=C/c3ccc4ccccc4c3)cc2)n2nc(SCc3nc4ccccc4[nH]3)nc2n1
- IC50 [1]: 9.21 nM
- clearance [2]: 17.7 mL/min/kg
- Activity [3]: Active
- IC50 [4]: 1.31 nM
- Activity [5]: Active
- IC50 [6]: 3.68 nM
- AUC(0-t) at 24 h [7]: 9440 ng·h/mL
- Activity [8]: Non-Toxic
- IC50 [9]: 3.53 nM
- Activity [10]: Active
- Activity [11]: 59%
- IC50 [12]: 28.1 nM
- Vd [13]: 0.114 L/kg
- IC50 [14]: 6.98 nM
- fold change (FC) [15]: 1.1
- fold change (FC) [16]: 24.84
